Counter-ions that a name gives are not always drawn. Like-named read-outs stand apart in the source and are kept apart here.
Legend:
β-lactamase Tem-1 = molecular target: T1, β-lactamase Tem-1 (Escherichia coli, UniProt P62593); assay: Inhibitory activity for β-lactamases (nitrocefin hydrolysis); format: biochemical, E. coli 250HT21
T1 construct: The β-lactamases are isolated from bacterial strains resistant to penicillins and to cephalosporins; endogenous in cells; host or cells: E. coli 250HT21, soluble fraction of French-press lysate
T1 sequence (P62593 24-286 limits assumed): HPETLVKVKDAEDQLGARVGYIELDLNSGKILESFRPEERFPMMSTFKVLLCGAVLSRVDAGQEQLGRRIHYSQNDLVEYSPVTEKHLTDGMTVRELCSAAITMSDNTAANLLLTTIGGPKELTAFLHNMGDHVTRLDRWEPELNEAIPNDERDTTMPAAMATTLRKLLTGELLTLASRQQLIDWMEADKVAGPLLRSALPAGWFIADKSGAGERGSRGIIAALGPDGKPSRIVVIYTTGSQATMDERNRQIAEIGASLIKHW
Description: (§1) II/Inhibitory Activity for β-Lactamases
(§2) A. Preparation of the β-Lactamases Tem-1 and P99
(§3) The β-lactamases are isolated from bacterial strains resistant to penicillins and to cephalosporins (Tem1 and P99 are produced respectively by E. coli 250HT21 and E. Cloacae 293HT6).
(§4) The bacteria are cultured in 37 g/l brain-heart broth (DIFCO) at 37° C. They are harvested in the exponential phase, cooled and centrifuged. The bacterial pellets are taken up in 50 mM sodium phosphate buffer, pH 7.0, and are again centrifuged. The bacteria are taken up in two volumes of the same buffer and lyzed using a French press maintained at 4° C. After centrifuging for 1 h at 100 000 g at 4° C., the supernatants comprising the soluble fraction of the bacterial extracts are recovered and frozen at −80° C.
(§5) B. Determination of the β-Lactamase Activity
(§6) The method uses nitrocefin (Oxoid), a chromogenic cephalosporin, the product of hydrolysis by β-lactamases of which is red and absorbed at 485 nm, as substrate. The β-lactamase activity is determined kinetically by the measurement, on a plate spectrophotometer (Spectra Max Plus from Molecular Devices), of the variation in absorbance at 485 nm resulting from the hydrolysis of the substrate. The experiments are carried out at 37° C. The amount of enzyme was standardized and the measurements are carried out at the initial rate.
(§7) C. Determination of the Inhibitory Activity for β-Lactamases
(§8) Two measurements are carried out, without preincubation and with preincubation of the enzyme and of the inhibitor (5 min), in order to test the irreversibility of the reaction. The products are tested at 6 or 8 concentrations in duplicate. The reaction mixture comprises 100 μM nitrocefin and 50 mM sodium phosphate buffer, pH 7.0.
(§9) D. Calculations of the IC50 Values
(§10) The rates of hydrolysis are measured with and without inhibitor. The concentration of inhibitor which inhibits by 50% the reaction for the hydrolysis of nitrocefin by the enzyme is determined (IC50). The processing of the data is carried out using GraFit software (Erathycus Software).

β-lactamase P99 = molecular target: T2, β-lactamase P99 (Enterobacter cloacae, UniProt P05364); assay: as above; format: biochemical
T2 construct: The β-lactamases are isolated from bacterial strains resistant to penicillins and to cephalosporins; endogenous in cells; host or cells: Enterobacter cloacae 293HT6, soluble fraction of French-press lysate
T2 sequence (P05364 21-381): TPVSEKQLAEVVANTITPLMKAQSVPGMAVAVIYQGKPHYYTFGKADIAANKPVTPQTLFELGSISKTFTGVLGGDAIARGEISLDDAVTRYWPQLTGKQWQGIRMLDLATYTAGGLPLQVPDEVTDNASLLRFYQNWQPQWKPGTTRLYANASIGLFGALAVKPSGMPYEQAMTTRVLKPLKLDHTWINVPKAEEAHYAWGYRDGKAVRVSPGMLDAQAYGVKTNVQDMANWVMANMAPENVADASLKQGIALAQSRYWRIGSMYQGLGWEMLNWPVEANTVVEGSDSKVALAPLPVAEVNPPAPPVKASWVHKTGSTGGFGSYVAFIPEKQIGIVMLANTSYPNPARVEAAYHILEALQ
Description: as §1, §2, §3, §4, §5, §6, §7, §8, §9, §10

[1] = after 5 min of preincubation with the enzyme, 100 μM nitrocefin, 50 mM sodium phosphate buffer pH 7.0, 37° C., read-out: IC50 nM/TEM1
[2] = after 5 min of preincubation with the enzyme, 100 μM nitrocefin, 50 mM sodium phosphate buffer pH 7.0, 37° C., read-out: IC50 nM/P99

Q: What does the source list for `CS(=O)(=O)N1c2ccccc2C2CN1C(=O)N2OCC(=O)O` (stereo not shown) [Example 5, N-(1-Methylethyl)-2-propanaminium salt of [[1,5-dihydro-1-(methylsulfonyl)-3-oxo-2,5-methano-2H-1,2,4-benzotriazepin-4(3H)-yl]oxy]acetic acid]?
A: IC50 (β-lactamase Tem-1): 570000 nM; IC50 (β-lactamase P99): 460000 nM

Q: For `O=C(O)CON1C(=O)N2CC1c1ccccc1N2C(=O)NC(=O)c1ccccc1` (stereo not shown) [Example 7, N-(1-Methylethyl)-2-propanaminium salt of [[1-[(benzoylamino)carbonyl]-1,5-dihydro-3-oxo-2,5-methano-2H-1,2,4-benzotriazepin-4(3H)-yl]oxy]acetic acid], which IC50 (β-lactamase Tem-1) is on record?
A: 110000 nM

Q: And the IC50 (β-lactamase P99)?
A: 63000 nM

Q: `O=C(O)CON1C(=O)N2CC1c1ccccc1N2C(=O)NS(=O)(=O)c1ccccc1` (stereo not shown) [Example 9, Bis[N-(1-methylethyl)-2-propanaminium] salt of [[1,5-dihydro-3-oxo-1-[[(phenylsulfonyl)amino]carbonyl]-2,5-methano-2H-1,2,4-benzotriazepin-4(3H)-yl]oxy]acetic acid] was tested. Which IC50 (β-lactamase Tem-1) did it give?
A: 160000 nM

Q: And the IC50 (β-lactamase P99)?
A: 180000 nM

Q: `O=C(O)CON1C(=O)N2CC1c1ccccc1N2` (stereo not shown) [Example 11, N-(1-Methylethyl)-2-propanaminium salt of [(1,5-dihydro-3-oxo-2,5-methano-2H-1,2,4-benzotriazepin-4(3H)-yl)oxy]acetate acid] was tested. Which IC50 (β-lactamase Tem-1) did it give?
A: 14000 nM

Q: What about the IC50 (β-lactamase P99) of the same molecule?
A: 15000 nM

Q: Which IC50 (β-lactamase Tem-1; [1]) does the source give for `C=CCON1C(=O)N2CC1c1ccccc1N2Cc1cccnc1` (stereo not shown) [Example 14, 4,5-Dihydro-4-(2-propenyloxy)-1-(3-pyridinylmethyl)-2,5-methano-2H-1,2,4-benzotriazepin-3(1H)-one] here?
A: 26000 nM

Q: What about the IC50 (β-lactamase P99; [2]) of the same molecule?
A: 17000 nM

Q: What does the source list for `C=CCON1C(=O)N2CC1c1ccccc1N2C(=O)NS(=O)(=O)c1ccccc1` (stereo not shown) [Example 15, 4,5-Dihydro-3-oxo-N-(phenylsulfonyl)-4-(2-propenyloxy)-2,5-methano-2H-1,2,4-benzotriazepin-1(3H)-carboxamide]?
A: IC50 (β-lactamase Tem-1; [1]): 450000 nM; IC50 (β-lactamase P99; [2]): 110000 nM

Q: What does the source list for `CCOC(=O)CN1c2ccccc2C2CN1C(=O)N2OS(=O)(=O)O` (stereo not shown) [Example 27, Sodium Salt of Ethyl 4,5-dihydro-3-oxo-4-(sulfoxy)-2,5-methano-2-H-1,2,4-benzotriazepine-1(3H)-acetate]?
A: IC50 (β-lactamase Tem-1; [1]): 7500 nM; IC50 (β-lactamase P99; [2]): 530 nM

Q: With `CN1c2ccccc2C2CN1C(=O)N2OS(=O)(=O)O` (stereo not shown) [Example 28, Sodium salt of 4,5-dihydro-1-methyl-4-(sulfooxy)-2,5-methano-2H-1,2,4-benzotriazepin-3(1H)-one] as the molecule, how does the IC50 (β-lactamase Tem-1; [1]) read?
A: 12000 nM

Q: And the IC50 (β-lactamase P99; [2])?
A: 37000 nM

Reference: US7365071B2, “Heterocyclic compounds, preparation process and intermediates, and use as medicaments, in particular as β-lactamase inhibitors and antibacterials” (priority 2002, dated 2008)
